Active and inactive are the calls of the source. The rule behind the calls is not given here.
Test system: Pseudomonas aeruginosa
Experiment: Antibacterial activity against Pseudomonas aeruginosa PAO1
Format: functional, organism-based

SMILES | Activity
CCn1cc(C(=O)O)c(=O)c2cc(F)c(N3CCN(C(=O)OCOC(=O)CCC(=O)NCCCc4ccc(O)c(C5=NC(C6SCC(C(=O)O)N6C)CS5)c4)CC3)cc21 (configuration not stated) | Active
CCn1cc(C(=O)O)c(=O)c2cc(F)c(N3CCN(C(=O)OCOC(=O)CCC(=O)NCC#Cc4ccc(O)c(C5=NC(C6SCC(C(=O)O)N6C)CS5)c4)CC3)cc21 (configuration not stated) | Active
